For series [1], the target named is FXR-LBD (Homo sapiens (Human), UniProt Q96RI1). The experiment in a line: TR-FRET Farnesoid X Receptor Coactivator Assay. It is filed as biochemical. The settings on record: TR-FRET farnesoid X receptor protein coactivator activity. The method, then:
Purchasing invitrogen PV4833 kits. The procedure refers to LanthaScreen™ TR-FRET Farnesoid X Receptor Coactivator Assay
First, the required amount of the compound was weighed and dissolved in 100% DMSO at the maximum concentration of 3000 μM. The solution at the maximum concentration was diluted by 3-fold serial dilution in DMSO to get 10 concentrations;
Second, the above prepared solutions of different concentrations were diluted to 50-fold with a buffer supplied with the kit, to 2× compound solution, followed by mixing and then 10 μL of the diluted solution was added to a 384 well plate;
Third, FXR-LBD was diluted with a buffer to 4× solution, and 5 μL of the diluent was added to the 384 well plate of second step;
Fourth, Fluorescein-SRC2-2 and Tb anti-GST antibody were diluted to 4× Fluorescein-SRC2-2 and Tb anti-GST antibody solution. Then two reagents were mixed together, and 5 μL of the mixture was added to the 384 well plate of third step;
Finally, the solution of the 384 well above was mixed uniformly by centrifuging, and then incubated at room temperature for 1 h. Then the TR-FRET Endpoint method was used for measuring the solution at wavelengths of 520 nm, 495 nm and 337 nm.
In general terms: Time-resolved FRET reads energy transfer from a long-lived donor to a nearby acceptor.

Series [2] can be described thus: Pharmacokinetics test in SD rats. In kind it is in vivo. Particulars: rat, plasma, male SD rats. How it is done:
Example 22 Pharmacokinetics Test
Experimental animals: six healthy adult male SD rats (purchased from Hunan SJA Laboratory Animal Co. Ltd.) were divided into two groups, three rats in each group, and the two groups were given intravenous injection and oral administration respectively.
Drug preparation: a quantity of a compound of the present invention was weighed, and 5% DMSO, 10% Kolliphor HS15 and 85% saline (0.9%) were added to give target concentrations of the compound solution.
Administration and sample collection: animals were fasted for 12 h before administration, and fed at the time point of 3 hours after the administration. SD rats of one group were given intravenous injection (IV, 1 mg/kg) via hind legs and SD rats of the other group were given oral administration (PO, 5 mg/kg) respectively. Then blood was collected in the rat tail vein at the time point of 0, 0.083, 0.25, 0.5, 1, 2, 4, 6, 8, 24 h respectively, and the blood volume was about 200-400 μL/time point. After the collection of whole blood at each time point, the collected blood was set in K2EDTA anticoagulant tube, and the tube was placed in the incubator with ice packs. All samples were centrifuged for 5 min at 4° C. at 4600 r/min within 15 min. Plasma was separated and collected. The concentrations of different compounds in the plasma of the rats after administration were measured using LC/MS/MS method, and the pharmacokinetic parameters were calculated according to the curve of the drug concentration-time.

Series [3] has as its target FXR ligand binding domain (LBD) (Homo sapiens (Human), UniProt Q96RI1). The experiment in a line: Mammalian one hybrid (M1H) GAL4 reporter gene assay in HEK293 cells. It is filed as cell-based. The settings on record: GAL4 reporter gene test. An excerpt:
Mammalian one hybrid technology is also called chimeric receptor gene assay. Based on the GAL4 chimera receptor assay, the activity of compounds which mediated activation of FXR was detected by dual luciferase reporter assay. The methods were as follows: cDNA encoding the FXR ligand binding domain (LBD), the yeast GAL4 DNA binding domain (DBD) and the Renilla luciferase DNA were fused to construct a chimera expression plasmid pBIND-FXR (Promega). […] The plasmid pG5Luc (Promega) was used as the reporter plasmid, containing the GAL4 upstream activation sequence (UAS) and the Firefly luciferase receptor gene. All GAL4 reporter gene assays were done in HEK293 cells. Cells were cultured at 37° C., 5% CO2 under humidified conditions. […] The contents were mixed completely and incubated the mixtures for 15 minutes at room temperature. The volume of the transfection mixture was 2.5 μl/well. Trypsinized and diluted the cell slurry at a density of […] (100 μl/well for 96-well plate). Then added required volume of transfection mixture prepared previously into the cell slurry, and dispensed 100 μl/well of the cell slurry into the 96-well plate and incubated the plate for 24 hours at 37° C., 5% CO2 under humidified conditions. Compounds prediluted in complete medium were added into each well and then incubated at 37° C., 5% CO2 under humidified conditions for 18 hours. The firefly and renilla luciferase signal was assayed by Promega's Dual Luciferase Reporter Assay System.
The % Activation value was calculated by the following equation: Activation %=[(X−Min)/(Max−Min)]×100%. “X” is the “F/R” value from compounds. “F/R” means “Firefly/Renilla”. “Min” is the mean “F/R” value from no compound control. “Max” is the mean “F/R” value from reference compound control. Finally, the EC50 value of each compounds were calculated by GraphPrism 5.0.

FXR-LBD, sequence (Q96RI1 262-486): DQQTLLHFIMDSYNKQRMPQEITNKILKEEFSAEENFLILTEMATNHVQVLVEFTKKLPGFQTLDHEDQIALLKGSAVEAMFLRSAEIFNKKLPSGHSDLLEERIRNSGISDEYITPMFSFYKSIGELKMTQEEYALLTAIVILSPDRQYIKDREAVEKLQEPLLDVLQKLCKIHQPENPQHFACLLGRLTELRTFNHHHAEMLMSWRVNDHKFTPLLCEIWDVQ
FXR ligand binding domain (LBD), sequence (Q96RI1 261-481): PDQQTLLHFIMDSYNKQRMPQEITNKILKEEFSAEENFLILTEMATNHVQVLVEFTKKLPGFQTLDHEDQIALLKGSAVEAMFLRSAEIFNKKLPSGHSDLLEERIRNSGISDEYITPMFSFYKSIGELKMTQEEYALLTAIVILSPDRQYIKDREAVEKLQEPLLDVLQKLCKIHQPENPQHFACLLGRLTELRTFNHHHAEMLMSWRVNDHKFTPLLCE

A word on the EC50: it is the concentration that produces a half-maximal response. Low readings indicate an effect from little substance, high ones a need for much substance. As a reminder, the AUC(0-inf) is the area under the concentration-time curve extrapolated to infinity. Broadly, the AUC(0-t) is the area under the concentration-time curve up to a stated or last time point. Higher therefore signals high exposure. The Cmax is the highest concentration seen after dosing. What is called MRT inf is the average time that molecules of a dose stay in the body. A word on the Tmax: it is the time from dosing to the highest level. One may read the clearance as the rate of elimination divided by the concentration. Low readings indicate inefficient removal, high ones efficient removal. By half-life is commonly meant the time needed for the level to fall by half in the phase considered. Read a high half-life as slow decline. As a reminder, the bioavailability is the share of a dose that reaches the circulation, judged against a reference dose that is usually intravenous. The low end stands for poor availability, the high end for good availability. In series [1], `O=C(O)c1ccc2c(c1)Oc1ccc(OCc3c(-c4c(Cl)cccc4Cl)noc3C3CC3)nc1CO2` [Example 2, 2-((5-cyclopropyl-3-(2,6-dichlorophenyl)isoxazol-4-yl)methoxy)-11H-benzo[2,3][1,4]dioxepino[6,5-b]pyridine-7-carboxylic acid] had an EC50 of 0.0051 µM. Besides, in series [2] (iv 1 mg/kg), the AUC(0-inf) was found to be 1150 ng·h/mL, the AUC(0-t) was determined as 1150 ng·h/mL, the peak level (Cmax) was 2060 ng/mL and the mean residence time (MRT inf) was determined as 32.9 min. In series [2] (iv 1 mg/kg), the time of peak concentration (Tmax) was determined as 4.98 min, the clearance is 14.8 mL/min/kg and the half-life is 53 min. In addition, the Vd in series [2] (iv 1 mg/kg, read-out: Vss) is 0.479 L/kg. In series [2] (po 5 mg/kg), this compound had an AUC(0-inf) of 4110 ng·h/mL, an AUC(0-t) of 4110 ng·h/mL, a Cmax of 3640 ng/mL and a mean residence time (MRT inf) of 55.9 min. Further, in series [2] (po 5 mg/kg), the Tmax was determined as 30 min and the half-life was 42.6 min. The compound further yielded a bioavailability in series [2] (po 5 mg/kg vs iv 1 mg/kg) of 72%.

As to `O=C(O)c1cc2c(cc1O)CCc1nc(OCc3c(-c4c(Cl)cccc4Cl)noc3C3CC3)ccc1O2` [Example 11, 2-((5-cyclopropyl-3-(2,6-dichlorophenyl)isoxazol-4-yl)methoxy)-8-hydroxy-10,11-dihydrobenzo[6,7]oxepino[3,2-b]pyridine-7-carboxylic acid], the 50% effective concentration (EC50) is 0.017 µM in series [1] and 0.105 µM in series [3].

These data come from patent US10562910B2, “Nitrogen-containing tricyclic compounds and uses thereof in medicine” (SUNSHINE LAKE PHARMA CO., LTD., priority 2016, dated 2020).
